In DBAASP:
Values after ≈ are worked out from the molar mass of the structure shown. Values joined by “and” are separate entries in the source; they are usually repeats but may differ in a detail not shown here. Equal entries are not always repeated.

Assays:
Experiment in all cases: ≥ marks a high value that may be exact or a test limit, other limits are often not marked, values filed in µg/mL are converted to µM
[1] = system: Streptococcus pneumoniae BCRC 10794
[2] = system: Enterococcus faecium CGMCC 1.2334
[3] = system: Staphylococcus aureus AS1.72
Escherichia coli AS1.349 = system: Escherichia coli AS1.349
[4] = system: Candida tropicalis CCM 8264
[5] = system: Staphylococcus epidermidis CICC 23664
[6] = system: Klebsiella pneumoniae subsp. pneumoniae CGMCC 1.176
[7] = system: Streptococcus salivarius CGMCC 1.2498
[8] = system: Pseudomonas aeruginosa CGMCC 1.860
[9] = system: Proteus mirabilis CICC 22931
[10] = system: Streptococcus mutans CGMCC 1.2500
[11] = system: Candida parapsilosis CCM 8260
[12] = system: Candida glabrata CCM 8270
[13] = system: Enterobacter cloacae CGMCC 1.58
[14] = system: Enterococcus faecalis CGMCC 1.595
[15] = system: Candida albicans CCM 8186
[16] = system: Staphylococcus aureus PCM 2054
[17] = system: Candida albicans CMCC 98001
[18] = system: Fusobacterium nucleatum CGMCC 1.2526
[19] = system: Candida albicans PCM 2566
[20] = system: Pseudomonas aeruginosa PCM 499
Bacillus cereus = system: Bacillus cereus
Bacillus cereus AS1.126 = system: Bacillus cereus AS1.126
[21] = system: Staphylococcus epidermidis PCM 521
Candida krusei CCM 8271 = system: Candida krusei CCM 8271
[22] = system: Lactobacillus acidophilus CGMCC 1.1854
[23] = system: Escherichia coli PCM 2057
[24] = system: Staphylococcus aureus PMC 1650
[25] = system: Streptococcus sanguinis CGMCC 1.2497
Bacillus subtilis = system: Bacillus subtilis
[26] = system: Staphylococcus epidermidis PCM 2118
[27] = system: Staphylococcus aureus DSM 1104
[28] = system: Escherichia coli DSM 1103
[29] = system: Bacillus subtilis ATCC 6633
[30] = system: Escherichia coli DH5alpha
[31] = system: Micrococcus luteus DSM 1790
[32] = system: Kocuria rhizophila DSM 348
[33] = system: Escherichia coli KCTC 2223
[34] = system: Salmonella typhimurium KCTC 2370
[35] = system: Micrococcus luteus ATCC 10240
[36] = system: Staphylococcus aureus ATCC 15752
[37] = system: Escherichia coli ATCC 27325
[38] = system: Saccharomyces cerevisiae ATCC 44774
[39] = system: Candida albicans ATCC 10231
[40] = system: Pseudomonas putida ATCC 17426
[41] = system: Streptococcus mutans ATCC 25175
[42] = system: Bacillus subtilis ATCC 62037
[43] = system: Salmonella enterica subsp. enterica serovar Enteritidis ATCC 13076

**Q.** How did the MIC [1] turn out when CC[C@H](C)[C@H](NC(C)=O)C(=O)N[C@@H](Cc1cnc[nH]1)C(=O)NCC(=O)N[C@@H](CC(C)C)C(=O)N[C@H](C(N)=O)C(C)C [IHGLV] was run?
**A.** ≥ 186 µM

**Q.** What does the source list for CC[C@H](C)[C@H](N)C(=O)N[C@@H](CCCCN)C(=O)N[C@@H](CCCCN)C(=O)N[C@H](C(=O)N[C@@H](CC(C)C)C(=O)N[C@@H](CO)C(=O)N[C@@H](CCCCN)C(=O)N[C@H](C(=O)N[C@@H](CCCCN)C(=O)N[C@@H](CCCCN)C(=O)N[C@@H](CC(C)C)C(=O)N[C@@H](CC(C)C)C(=O)N[C@@H](CCCCN)C(N)=O)[C@@H](C)CC)[C@@H](C)CC [IKKILSKIKKLLK]?
**A.** MIC [2]: 5 µM (≈ 7.76 µg/mL); MIC [3]: 5 µM (≈ 7.76 µg/mL); MIC (Escherichia coli AS1.349): 3.13 µM (≈ 4.86 µg/mL); MIC [4]: 1.29 µM (≈ 2 µg/mL); MIC [5]: 4.69 µM (≈ 7.28 µg/mL); MIC [6]: ≥ 100 µM; MIC [7]: 6.25 µM (≈ 9.7 µg/mL); MIC [8]: 6.25 µM (≈ 9.7 µg/mL); MIC [9]: ≥ 100 µM; MIC [10]: 3.13 µM (≈ 4.86 µg/mL); MIC [11]: 5.02 µM and 8.05 µM; MIC [12]: 20.2 µM and 20.1 µM; MIC [13]: ≥ 100 µM; MIC [14]: 3.13 µM (≈ 4.86 µg/mL); MIC [15]: 20.2 µM (≈ 31.3 µg/mL); MIC [16]: ≥ 64.4 µM; MIC [17]: 6.25 µM (≈ 9.7 µg/mL); MIC [18]: 4.69 µM (≈ 7.28 µg/mL); MIC [19]: ≥ 32.2 µM; MIC [20]: 16.1 µM (≈ 25 µg/mL); MIC (Bacillus cereus): ≥ 32.2 µM; MIC (Bacillus cereus AS1.126): 6.25 µM (≈ 9.7 µg/mL); MIC [21]: 4.02 µM (≈ 6.25 µg/mL); MIC (Candida krusei CCM 8271): 5.02 µM and 8.05 µM; MIC [22]: 3.13 µM (≈ 4.86 µg/mL); MIC [23]: ≥ 80.5 µM; MIC [24]: ≥ 32.2 µM; MIC [25]: 6.25 µM (≈ 9.7 µg/mL); MIC (Bacillus subtilis): 5.02 µM (≈ 7.8 µg/mL); MIC [26]: 5.02 µM and 4.02 µM

**Q.** What does the source list for CC[C@H](C)[C@H](NC(=O)[C@H](CCCCN)NC(=O)CNC(=O)[C@H](C)NC(=O)[C@@H](NC(=O)[C@H](CCCCN)NC(=O)[C@H](C)NC(=O)[C@@H](NC(=O)[C@H](CCCCN)NC(=O)CNC(=O)[C@H](C)NC(=O)[C@@H](NC(=O)[C@H](CCCCN)NC(=O)[C@H](C)NC(=O)[C@@H](NC(=O)[C@H](CCCCN)NC(=O)CNC(=O)[C@H](C)NC(=O)[C@@H](NC(=O)[C@@H](N)CCCCN)[C@@H](C)CC)[C@@H](C)CC)[C@@H](C)CC)[C@@H](C)CC)[C@@H](C)CC)C(=O)N[C@@H](C)C(=O)O [KIAGKIAKIAGKIAKIAGKIA]?
**A.** MIC [27]: ≥ 62 µM; MIC [28]: 3.88 µM (≈ 8 µg/mL); MIC [29]: 3.88 µM (≈ 8 µg/mL); MIC [30]: 7.75 µM (≈ 16 µg/mL); MIC [31]: 7.75 µM (≈ 16 µg/mL); MIC [32]: ≥ 62 µM

**Q.** With CC(C)C[C@H](NC(=O)[C@H](CCCCN)NC(=O)[C@H](CCC(N)=O)NC(=O)[C@H](CCCCN)NC(=O)[C@H](CC(C)C)NC(=O)[C@H](CC(C)C)NC(=O)[C@H](CCC(N)=O)NC(=O)[C@H](CC(C)C)NC(=O)[C@H](CC(C)C)NC(=O)[C@@H]1CCCN1C(=O)[C@H](CCCN=C(N)N)NC(=O)[C@H](CC(C)C)NC(=O)[C@H](CC(C)C)NC(=O)[C@@H](N)CCCN=C(N)N)C(=O)N[C@@H](CCCN=C(N)N)C(=O)O [RLLRPLLQLLKQKLR] as the compound, how does the MIC [33] read?
**A.** 16 µM (≈ 30.2 µg/mL)

**Q.** And the MIC [34]?
**A.** 8 µM (≈ 15.1 µg/mL)

**Q.** What about the MIC [35] of the same compound?
**A.** 1 µM (≈ 1.89 µg/mL)

**Q.** And the MIC [36]?
**A.** 1 µM (≈ 1.89 µg/mL)

**Q.** CC[C@H](C)[C@H](NC(=O)[C@@H]1CCCN1C(=O)[C@H](Cc1c[nH]c2ccccc12)NC(=O)[C@H](CCC(N)=O)NC(=O)[C@H](CCCN=C(N)N)NC(=O)[C@@H](NC(=O)[C@@H](NC(=O)[C@@H](N)CCCN=C(N)N)C(C)C)C(C)C)C(=O)NCC(=O)N[C@@H](CCCN=C(N)N)C(=O)N[C@H](C(=O)N[C@H](C(=O)N[C@@H](CCCN=C(N)N)C(=O)N[C@@H](CCCN=C(N)N)C(=O)N[C@H](C(=O)N[C@H](C(=O)N[C@@H](CCCN=C(N)N)C(=O)N[C@@H](CCCN=C(N)N)C(=O)N[C@H](C(=O)N[C@H](C(=O)N[C@@H](CCCN=C(N)N)C(=O)N[C@@H](Cc1ccc(O)cc1)C(=O)O)C(C)C)C(C)C)C(C)C)C(C)C)C(C)C)C(C)C [RVVRQWPIGRVVRRVVRRVVRY] was tested. Which MIC [37] did it give?
**A.** 1.43 µM (≈ 4 µg/mL)

**Q.** What about the MIC [38] of the same compound?
**A.** 0.356 µM (≈ 1 µg/mL)

**Q.** And the MIC [39]?
**A.** 1.43 µM (≈ 4 µg/mL)

**Q.** What about the MIC [40] of the same compound?
**A.** 0.713 µM (≈ 2 µg/mL)

**Q.** And the MIC [41]?
**A.** 0.713 µM (≈ 2 µg/mL)

**Q.** What about the MIC [42] of the same compound?
**A.** 0.713 µM (≈ 2 µg/mL)

**Q.** And the MIC [36]?
**A.** 0.713 µM (≈ 2 µg/mL)

**Q.** And the MIC [43]?
**A.** 0.713 µM (≈ 2 µg/mL)
